From article PMC8293625, “HLA class-I-peptide stability mediates CD8^+ T cell immunodominance hierarchies and facilitates HLA-associated immune control of HIV” (Cell Reports, 2021)
Like-named read-outs stand apart in the source and are kept apart here.

Key:
HLA-A*0301 = HLA-A*0301 (Homo sapiens, UniProt P04439); test: Cell-based HLA class I-peptide concentration-based stability assay (TAP-deficient mono-allelic 721.221 cells); settings: HLA A*03 mono-allelic TAP-deficient 721.221 cells, relative anti-HLA MFI; for Relative HLA MFI (10 uM): peptide 10 uM; for Relative HLA MFI (100 uM): peptide 100 uM
Procedure: (§1) Controls without peptide, but the corresponding concentration of DMSO, were performed in parallel.

[1] = system: HLA class-I alleles A*0101, A*0201, A*0301, A*2402, B*0702, B*0801, B*1402, B*1501, B*2705, B*3501, B*3901, B*4001, B*4402, B*5201, B*5701, B*5801, B*8101 …; assay type: cell-based, human; settings: relative anti-HLA MFI; for Relative HLA MFI (10 uM): peptide 10 uM; for Relative HLA MFI (100 uM): peptide 100 uM
HLA-B*5701 = HLA-B*5701 (Homo sapiens, UniProt P01889, D201E/D98Y/E176V/E187L/E204Q/E69M/E70A/G107R/I90N/K202T/L105A/L119I/N104I/N87E/Q89R/Q94S/R106L/R155S/R180L/R86G/S101N/S121V/S35A/S48A/T118I/V36M/Y140S/Y91M); test: Cell-based HLA class I-peptide concentration-based stability assay (TAP-deficient mono-allelic 721.221 cells); settings: section B*57, TAP-deficient mono-allelic 721.221 cells, relative anti-HLA MFI; for Relative HLA MFI (10 uM): peptide 10 uM; for Relative HLA MFI (100 uM): peptide 100 uM
Procedure: as §1

HLA-B*0702 = HLA-B*0702 (Homo sapiens, UniProt P01889); test: as above; settings: HLA B*07 mono-allelic TAP-deficient 721.221 cells, relative anti-HLA MFI; for Relative HLA MFI (10 uM): peptide 10 uM; for Relative HLA MFI (100 uM): peptide 100 uM
HLA-B*8101 = HLA-B*8101 (Homo sapiens, UniProt P01889, A269T/D138N/E176V/R180L/T167S/W171L); test: as above; settings: relative anti-HLA MFI; for Relative HLA MFI (10 uM): section B*81, peptide 10 uM; for Relative HLA MFI (100 uM): section B*81, peptide 100 uM
[2] = HLA A*02 mono-allelic TAP-deficient 721.221 cells
[3] = HLA B*08 mono-allelic TAP-deficient 721.221 cells
[4] = HLA B*15 mono-allelic TAP-deficient 721.221 cells
[5] = HLA B*39 mono-allelic TAP-deficient 721.221 cells
[6] = HLA B*35 mono-allelic TAP-deficient 721.221 cells
[7] = HLA B*40 mono-allelic TAP-deficient 721.221 cells
[8] = HLA B*27 mono-allelic TAP-deficient 721.221 cells
[9] = HLA B*14 mono-allelic TAP-deficient 721.221 cells
[10] = HLA A*01 mono-allelic TAP-deficient 721.221 cells

Sequence of HLA-B*8101 (P01889 25-362 D138N/T167S/W171L/E176V/R180L/A269T limits assumed): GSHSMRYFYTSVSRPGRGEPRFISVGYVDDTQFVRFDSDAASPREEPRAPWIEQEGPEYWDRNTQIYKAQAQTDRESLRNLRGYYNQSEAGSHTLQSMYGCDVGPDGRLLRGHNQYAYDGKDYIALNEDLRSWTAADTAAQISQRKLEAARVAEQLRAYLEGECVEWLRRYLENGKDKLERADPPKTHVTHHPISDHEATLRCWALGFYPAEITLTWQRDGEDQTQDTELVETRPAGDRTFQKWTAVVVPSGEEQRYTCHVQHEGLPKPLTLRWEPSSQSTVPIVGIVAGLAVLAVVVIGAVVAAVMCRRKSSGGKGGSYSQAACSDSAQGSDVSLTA

Sequence: AIFQSSMTK [ATK9]
- Relative HLA MFI (10 uM) (HLA-A*0301): 0.3479
- Relative HLA MFI (100 uM) (HLA-A*0301): 0.6619

Sequence: AIIRILQQL [AL9]
- Relative HLA MFI (10 uM) [1, 2]: 0.2439
- Relative HLA MFI (100 uM) [1, 2]: 0.5341
- Relative HLA MFI (10 uM) (HLA-B*5701): 0
- Relative HLA MFI (100 uM) (HLA-B*5701): 0.004343

Sequence: AVDLSHFLK [ALK9]
- Relative HLA MFI (10 uM) (HLA-A*0301): 0.274
- Relative HLA MFI (100 uM) (HLA-A*0301): 0.7814

Sequence: AVFIHNFKRK [AK10]
- Relative HLA MFI (10 uM) (HLA-A*0301): 0.265
- Relative HLA MFI (100 uM) (HLA-A*0301): 1

Sequence: AVRHFPRIW [AW9]
- Relative HLA MFI (10 uM) (HLA-B*5701): 0.4343
- Relative HLA MFI (100 uM) (HLA-B*5701): 0.7818

Sequence: ERILSTYLGR [ER10]
- Relative HLA MFI (10 uM) (HLA-A*0301): 0.09869
- Relative HLA MFI (100 uM) (HLA-A*0301): 0.5827

Sequence: FPRIWLHGL [FL9 (Vpr)]
- Relative HLA MFI (10 uM) (HLA-B*0702): 0.2812
- Relative HLA MFI (100 uM) (HLA-B*0702): 0.7264

Sequence: FPRIWLHGL [FL9]
- Relative HLA MFI (10 uM) (HLA-B*8101): 0.69
- Relative HLA MFI (100 uM) (HLA-B*8101): 1

Sequence: FPVTPQVPL [FL9 (Nef)]
- Relative HLA MFI (10 uM) (HLA-B*0702): 0.348
- Relative HLA MFI (100 uM) (HLA-B*0702): 0.9848

Sequence: FPVTPQVPLR [FR10]
- Relative HLA MFI (10 uM) (HLA-B*0702): 0.1079
- Relative HLA MFI (100 uM) (HLA-B*0702): 0.5897

Sequence: FSPEVIPMF [FF9]
- Relative HLA MFI (10 uM) (HLA-B*5701): 0.003257
- Relative HLA MFI (100 uM) (HLA-B*5701): 0.02714

Sequence: GAFDLSFFL [GL9]
- Relative HLA MFI (10 uM) [1, 2]: 0.2773
- Relative HLA MFI (100 uM) [1, 2]: 0.6097
- Relative HLA MFI (10 uM) [1, 3]: 0.3886
- Relative HLA MFI (100 uM) [1, 3]: 0.8634
- Relative HLA MFI (10 uM) [1, 4]: 0.06703
- Relative HLA MFI (100 uM) [1, 4]: 0.1423
- Relative HLA MFI (10 uM) [1, 5]: 0.6524
- Relative HLA MFI (100 uM) [1, 5]: 1
- Relative HLA MFI (10 uM) (HLA-B*0702): 0.1155
- Relative HLA MFI (100 uM) (HLA-B*0702): 0.2918

Sequence: HMYISKKAK [HK9]
- Relative HLA MFI (10 uM) (HLA-A*0301): 0.2644
- Relative HLA MFI (100 uM) (HLA-A*0301): 0.8145

Sequence: HPRVSSEVHI [HI10]
- Relative HLA MFI (10 uM) (HLA-B*0702): 0.007599
- Relative HLA MFI (100 uM) (HLA-B*0702): 0.6565

Sequence: HPVHAGPIA [HA9]
- Relative HLA MFI (10 uM) [1, 6]: 0.57
- Relative HLA MFI (100 uM) [1, 6]: 0.8723
- Relative HLA MFI (10 uM) (HLA-B*0702): 0.3541
- Relative HLA MFI (100 uM) (HLA-B*0702): 0.8359

Sequence: HTQGYFPDWQ [HQ10]
- Relative HLA MFI (10 uM) (HLA-B*5701): 0.03149
- Relative HLA MFI (100 uM) (HLA-B*5701): 0.01629

Sequence: IATESIVIW [IAW9]
- Relative HLA MFI (10 uM) (HLA-B*5701): 0.4853
- Relative HLA MFI (100 uM) (HLA-B*5701): 1

Sequence: IPRRIRQGL [IL9]
- Relative HLA MFI (10 uM) [1, 6]: 0.6542
- Relative HLA MFI (100 uM) [1, 6]: 0.68
- Relative HLA MFI (10 uM) [1, 7]: 0.518
- Relative HLA MFI (100 uM) [1, 7]: 0.8038
- Relative HLA MFI (10 uM) (HLA-B*0702): 0.3754
- Relative HLA MFI (100 uM) (HLA-B*0702): 1

Sequence: ISKKAKGWF [IF9]
- Relative HLA MFI (10 uM) (HLA-B*5701): 0.4093
- Relative HLA MFI (100 uM) (HLA-B*5701): 0.557

Sequence: IVLPEKDSW [IW9 (RT)]
- Relative HLA MFI (10 uM) (HLA-B*5701): 0.4821
- Relative HLA MFI (100 uM) (HLA-B*5701): 0.7481

Sequence: KAFSPEVI [KI8]
- Relative HLA MFI (10 uM) (HLA-B*5701): 0.06623
- Relative HLA MFI (100 uM) (HLA-B*5701): 0.2215

Sequence: KAIGTVLV [KV8]
- Relative HLA MFI (10 uM) (HLA-B*5701): 0.05212
- Relative HLA MFI (100 uM) (HLA-B*5701): 0

Sequence: KTKPPLPSVKK [KK11]
- Relative HLA MFI (10 uM) (HLA-A*0301): 0.3455
- Relative HLA MFI (100 uM) (HLA-A*0301): 0.9676

Sequence: LGHGVSIEW [LW9]
- Relative HLA MFI (10 uM) (HLA-B*5701): 0
- Relative HLA MFI (100 uM) (HLA-B*5701): 0.005429

Sequence: LRPMTYKAA [LA9]
- Relative HLA MFI (10 uM) [1, 8]: 0.09012
- Relative HLA MFI (100 uM) [1, 8]: 0.09773
- Relative HLA MFI (10 uM) (HLA-B*8101): 0.0372
- Relative HLA MFI (100 uM) (HLA-B*8101): 0.09141

Sequence: LTFGWCFKL [LL9]
- Relative HLA MFI (10 uM) (HLA-B*5701): 0
- Relative HLA MFI (100 uM) (HLA-B*5701): 0

Sequence: QAVRIIKILY [QY10]
- Relative HLA MFI (10 uM) (HLA-B*5701): 0
- Relative HLA MFI (100 uM) (HLA-B*5701): 0

Sequence: RGPGRAFVTI [RI10]
- Relative HLA MFI (10 uM) [1, 2]: 0.001172
- Relative HLA MFI (100 uM) [1, 2]: 0.4741
- Relative HLA MFI (10 uM) [1, 8]: 0.4976
- Relative HLA MFI (100 uM) [1, 8]: 0.7237
- Relative HLA MFI (10 uM) (HLA-B*0702): 0.02584
- Relative HLA MFI (100 uM) (HLA-B*0702): 0.4954

Sequence: RIRTWKSLVK [RK10]
- Relative HLA MFI (10 uM) (HLA-A*0301): 0.3155
- Relative HLA MFI (100 uM) (HLA-A*0301): 0.8607

Sequence: RLRDLLLIVTR [RR11]
- Relative HLA MFI (10 uM) (HLA-A*0301): 0
- Relative HLA MFI (100 uM) (HLA-A*0301): 0.02843

Sequence: RPAEPVPLQL [RL10]
- Relative HLA MFI (10 uM) (HLA-B*0702): 0.196
- Relative HLA MFI (100 uM) (HLA-B*0702): 0.848

Sequence: SPAIFQSSM [SM9]
- Relative HLA MFI (10 uM) (HLA-B*0702): 0
- Relative HLA MFI (100 uM) (HLA-B*0702): 0.1337

Sequence: SPRTLNAWV [SV9]
- Relative HLA MFI (10 uM) (HLA-B*0702): 0
- Relative HLA MFI (100 uM) (HLA-B*0702): 0.114

Sequence: STTVKAACWW [SW10]
- Relative HLA MFI (10 uM) (HLA-B*5701): 0.3518
- Relative HLA MFI (100 uM) (HLA-B*5701): 0.4995

Sequence: TPGPGVRYPL [TL10]
- Relative HLA MFI (10 uM) (HLA-B*0702): 0
- Relative HLA MFI (100 uM) (HLA-B*0702): 0.1231

Sequence: TPVNIIGRNML [TL11]
- Relative HLA MFI (10 uM) (HLA-B*8101): 0.7114
- Relative HLA MFI (100 uM) (HLA-B*8101): 0.9995

Sequence: VLEWRFDSRL [VL10]
- Relative HLA MFI (10 uM) [1, 2]: 0.04901
- Relative HLA MFI (100 uM) [1, 2]: 0.4134

Sequence: VPLDEDFRKY [VY10]
- Relative HLA MFI (10 uM) [1, 6]: 0.6747
- Relative HLA MFI (100 uM) [1, 6]: 0.7772

Sequence: VPVWKEATTTL [VL11]
- Relative HLA MFI (10 uM) [1, 6]: 0.5193
- Relative HLA MFI (100 uM) [1, 6]: 0.6924

Sequence: VRMYSPTSI [VI9]
- Relative HLA MFI (10 uM) [1, 9]: 0.1203
- Relative HLA MFI (100 uM) [1, 9]: 0

Sequence: VTDSQYALGI [VI10]
- Relative HLA MFI (10 uM) [1, 4]: 0.2539
- Relative HLA MFI (100 uM) [1, 4]: 0.3145

Sequence: WPTVRERM [WM8]
- Relative HLA MFI (10 uM) [1, 3]: 0.08175
- Relative HLA MFI (100 uM) [1, 3]: 0.02576

Sequence: WRFDSRLAF [WF9]
- Relative HLA MFI (10 uM) [1, 6]: 0.3891
- Relative HLA MFI (100 uM) [1, 6]: 0.3599

Sequence: WRFDSRLAFH [WH10]
- Relative HLA MFI (10 uM) [1, 10]: 0.02411
- Relative HLA MFI (100 uM) [1, 10]: 0.1796

Sequence: YTPGPGIRY [YY9]
- Relative HLA MFI (10 uM) (HLA-B*5701): 0
- Relative HLA MFI (100 uM) (HLA-B*5701): 0
